Data: patent publication US9518022B2, “Anti-HIV compounds” (priority 2014, dated 2016)

assay: Cytotoxicity assay (AlamarBlue) in mock infected MT-2 cells; assay type: cell-based; settings: human
In short: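 MT-2 cells at 2×10^4 cells/well, mock-infected, treated with 3-fold serial compound dilutions for 96 h at 37 °C. AlamarBlue added for 3 h, fluorescence read at 545/590 nm; % inhibition versus solvent control fitted to a 4-parameter logistic to give CC50.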

Row | SMILES | CC50 at 96 h [µM]
1 | COc1cc(C)c(/C=C/C2NCCc3cc(OCc4ccccc4)c(OC)cc32)c(C)c1 (stereo not drawn) [BA, 6-(benzyloxy)-7-methoxy-1-[(E)-2-(4-methoxy-2,6-dimethylphenyl)ethenyl]-1,2,3,4-tetrahydroisoquinoline] | 3.33
2 | COc1cc2c(cc1OCc1ccccc1)CCNC2/C=C/c1cn(C)c2ncccc12 (stereo not drawn) [DP, 6-(benzyloxy)-7-methoxy-1-[(E)-2-{1-methyl-1H-pyrrolo[2,3-b]pyridin-3-yl}ethenyl]-1,2,3,4-tetrahydroisoquinoline] | 1.3
3 | COC(=O)N1CCc2cc(OCc3ccccc3)c(OC)cc2C1/C=C/c1ccc(OC)c(OCc2ccccc2)c1 (stereo not drawn) [Example L, Methyl 6-benzyloxy-1-[(E)-2-(3-benzyloxy-4-methoxy-phenyl)vinyl]-7-methoxy-3,4-dihydro-1H-isoquinoline-2-carboxylate] | > 20
4 | COc1cc2c(cc1OCc1ccccc1)CCNC2/C=C/c1cn(C(=O)OC(C)(C)C)c2ccccc12 (stereo not drawn) [CI, tert-butyl 3-[(E)-2-[6-(benzyloxy)-7-methoxy-1,2,3,4-tetrahydroisoquinolin-1-yl]ethenyl]-1H-indole-1-carboxylate] | 4.98
5 | COc1cc2c(cc1OCc1ccccc1)CCNC2/C=C/c1ccccc1N (stereo not drawn) [CX, 2-[(E)-2-[6-(benzyloxy)-7-methoxy-1,2,3,4-tetrahydroisoquinolin-1-yl]ethenyl]aniline] | 20.8
6 | COc1ccc(/C=C/C2NCCc3cc(OCc4ccccc4)c(OC)cc32)c(OC)n1 (stereo not drawn) [CA, 6-(benzyloxy)-1-[(E)-2-(2,6-dimethoxypyridin-3-yl)ethenyl]-7-methoxy-1,2,3,4-tetrahydroisoquinoline] | 15.3
7 | COc1cc2c(cc1OCc1ccccc1)CCNC2/C=C/c1cc(OCc2ccccc2)ccc1C (stereo not drawn) [Example AD, 6-benzyloxy-1-[(E)-2-(5-benzyloxy-2-methyl-phenyl)vinyl]-7-methoxy-1,2,3,4-tetrahydroisoquinoline] | 3.22
8 | CCN1CCN(c2ccc(/C=C/C3NCCc4cc(OCc5ccccc5)c(OC)cc43)cc2)CC1 (stereo not drawn) [DO, 6-(benzyloxy)-1-[(E)-2-[4-(4-ethylpiperazin-1-yl)phenyl]ethenyl]-7-methoxy-1,2,3,4-tetrahydroisoquinoline] | 3.61
9 | COc1cc2c(cc1OCc1ccccc1)CCNC2/C=C/c1ccc(C(=O)O)cc1 (stereo not drawn) [EQ, 4-[(E)-2-[6-(benzyloxy)-7-methoxy-1,2,3,4-tetrahydroisoquinolin-1-yl]ethenyl]benzoic acid] | 10
10 | COc1ccc(/C=C/C2NCCc3cc(OCc4ccccc4)c(OC)cc32)cc1F (stereo not drawn) [BF, 6-(benzyloxy)-1-[(E)-2-(3-fluoro-4-methoxyphenyl)ethenyl]-7-methoxy-1,2,3,4-tetrahydroisoquinoline] | 33.5
11 | COc1cc(C)c(/C=C/C2NCCc3cc(OCc4ccccc4)c(OC)cc32)cc1C (stereo not drawn) [BV, 6-(benzyloxy)-7-methoxy-1-[(E)-2-(4-methoxy-2,5-dimethylphenyl)ethenyl]-1,2,3,4-tetrahydroisoquinoline] | 2.63
12 | COc1cc2c(cc1OCc1ccccc1)CCNC2/C=C/c1ccccc1N(C)C (stereo not drawn) [DC, 2-[(E)-2-[6-(benzyloxy)-7-methoxy-1,2,3,4-tetrahydroisoquinolin-1-yl]ethenyl]-N,N-dimethylaniline] | 10
13 | COc1cc2c(cc1OCc1ccccc1)CCNC2/C=C/c1ccc(-n2ccnc2C)cc1 (stereo not drawn) [DM, 6-(benzyloxy)-7-methoxy-1-[(E)-2-[4-(2-methyl-1H-imidazol-1-yl)phenyl]ethenyl]-1,2,3,4-tetrahydroisoquinoline] | 21.1
14 | COc1cc2c(cc1OCc1ccccc1)CCNC2/C=C/c1cc(OC)c(OC)c(OC)c1 (stereo not drawn) [Example AM, 6-Benzyloxy-7-methoxy-1-[(E)-2-(3,4,5-trimethoxyphenyl)vinyl]-1,2,3,4-tetrahydroisoquinoline] | 6
15 | COc1cc(C)c(/C=C/C2c3cc(OC)c(OCc4ccccc4)cc3CCN2C(=O)c2ccncc2)cc1OCc1ccccc1 (stereo not drawn) [Example U, [6-benzyloxy-1-[(E)-2-(5-benzyloxy-4-methoxy-2-methyl-phenyl)vinyl]-7-methoxy-3,4-dihydro-1H-isoquinolin-2-yl]-(4-pyridyl)methanone] | > 100
16 | CCCCOc1cc(/C=C/C2NCCc3cc(OCc4ccccc4)c(OC)cc32)c(C)cc1OC (stereo not drawn) [BL, 6-(benzyloxy)-1-[(E)-2-(5-butoxy-4-methoxy-2-methylphenyl)ethenyl]-7-methoxy-1,2,3,4-tetrahydroisoquinoline] | 1.1
17 | COc1cc2c(cc1OCc1ccccc1)CCNC2/C=C/c1ccccc1C(=O)O (stereo not drawn) [ES, 2-[(E)-2-[6-(benzyloxy)-7-methoxy-1,2,3,4-tetrahydroisoquinolin-1-yl]ethenyl]benzoic acid] | 10
18 | COc1cc2c(cc1OCc1ccccc1)CCNC2/C=C/c1ccccc1N1CCOCC1 (stereo not drawn) [DH, 6-(benzyloxy)-7-methoxy-1-[(E)-2-[2-(morpholin-4-yl)phenyl]ethenyl]-1,2,3,4-tetrahydroisoquinoline] | 17.8
19 | COc1cc2c(cc1OCc1ccccc1)CCNC2/C=C/c1ccccc1 (stereo not drawn) [BI, 6-(benzyloxy)-7-methoxy-1-[(E)-2-phenylethenyl]-1,2,3,4-tetrahydroisoquinoline] | 10
20 | COc1cc(C)c(/C=C/C2NCCc3cc(OCc4ccccc4)c(OC)cc32)cc1OCc1ccccc1 (stereo not drawn) [AF, 6-benzyloxy-1-[(E)-2-(5-benzyloxy-4-methoxy-2-methyl-phenyl)vinyl]-7-methoxy-1,2,3,4-tetrahydroisoquinoline] | 3.87
21 | COc1cc2c(cc1OCc1ccccc1)CCNC2/C=C/c1ccc(N2CCCCC2)cc1 (stereo not drawn) [EA, 6-(benzyloxy)-7-methoxy-1-[(E)-2-[4-(piperidin-1-yl)phenyl]ethenyl]-1,2,3,4-tetrahydroisoquinoline] | 4.8
22 | COc1cc2c(cc1OCc1ccccc1)CCNC2/C=C/c1ccc(-c2ccccn2)cc1 (stereo not drawn) [DZ, 6-(benzyloxy)-7-methoxy-1-[(E)-2-[4-(pyridin-2-yl)phenyl]ethenyl]-1,2,3,4-tetrahydroisoquinoline] | 5.8
23 | COc1cc(C)c(/C=C/C2=NCCc3cc(OCc4ccccc4)c(OC)cc32)cc1OCc1ccccc1 [Example AE, 6-benzyloxy-1-[(E)-2-(5-benzyloxy-4-methoxy-2-methyl-phenyl)vinyl]-7-methoxy-3,4-dihydroisoquinoline] | 33.5
24 | COc1cc(/C=C/C2NCCc3cc(OCc4ccccc4)c(OC)cc32)cc(OC)c1 (stereo not drawn) [AT, 6-(benzyloxy)-1-[(E)-2-(3,5-dimethoxyphenyl)ethenyl]-7-methoxy-1,2,3,4-tetrahydroisoquinoline] | 4.85
25 | COc1cc2c(cc1OCc1ccccc1)CCNC2/C=C/c1ccc(-c2ncco2)cc1 (stereo not drawn) [ED, 6-(benzyloxy)-7-methoxy-1-[(E)-2-[4-(1,3-oxazol-2-yl)phenyl]ethenyl]-1,2,3,4-tetrahydroisoquinoline] | 7.5

same assay, conditions: human; mock infected MT-2 cells, 96 hours, AlamarBlue; read-out: CC50

Row | SMILES | CC50 at 96 h [µM]
26 | COc1cc(C)c(/C=C/C2c3cc(OC)c(OCc4ccccc4)cc3CCN2C(N)=O)cc1OCc1ccccc1 (stereo not drawn) [Example R, 6-benzyloxy-1-[(E)-2-(5-benzyloxy-4-methoxy-2-methyl-phenyl)vinyl]-7-methoxy-3,4-dihydro-1H-isoquinoline-2-carboxamide] | 39.3
27 | COc1cc2c(cc1OCc1ccccc1)CCNC2/C=C/c1ccc(F)cc1C (stereo not drawn) [Example X, 6-benzyloxy-1-[(E)-2-(4-fluoro-2-methyl-phenyl)vinyl]-7-methoxy-1,2,3,4-tetrahydroisoquinoline] | 5.3
